Laboratory results from ChEMBL document CHEMBL1136026, “4,4'-Benzophenone-O,O'-disulfamate: a potent inhibitor of steroid sulfatase” (Bioorg Med Chem Lett, 2002).

Biological target: T1, Steryl-sulfatase (Homo sapiens, UniProt P08842)
T1 sequence (P08842 whole entry): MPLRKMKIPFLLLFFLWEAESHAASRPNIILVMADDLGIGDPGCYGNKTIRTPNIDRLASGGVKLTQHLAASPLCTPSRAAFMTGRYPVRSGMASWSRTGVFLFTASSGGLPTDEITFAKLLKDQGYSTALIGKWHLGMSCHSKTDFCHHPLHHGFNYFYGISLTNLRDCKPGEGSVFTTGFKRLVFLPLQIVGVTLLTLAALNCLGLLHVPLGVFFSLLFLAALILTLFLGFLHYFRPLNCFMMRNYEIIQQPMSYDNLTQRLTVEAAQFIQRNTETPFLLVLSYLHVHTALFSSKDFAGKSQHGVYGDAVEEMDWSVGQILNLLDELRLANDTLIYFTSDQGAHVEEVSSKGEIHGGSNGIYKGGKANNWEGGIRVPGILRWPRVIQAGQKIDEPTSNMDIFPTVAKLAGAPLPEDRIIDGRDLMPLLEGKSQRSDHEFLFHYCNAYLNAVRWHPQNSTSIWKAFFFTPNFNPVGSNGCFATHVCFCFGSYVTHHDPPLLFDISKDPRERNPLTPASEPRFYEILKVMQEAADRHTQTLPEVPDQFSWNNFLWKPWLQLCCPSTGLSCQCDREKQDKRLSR
Assay: Inhibition of human steroid sulfatase compared to EMATE

Q: For `NS(=O)(=O)Oc1ccc(C(=O)c2ccccc2)cc1`, which IC50 is on record?
A: 5.1 µM

Q: With `COc1cccc(C(=O)c2cccc(OS(N)(=O)=O)c2)c1` as the compound, how does the IC50 read?
A: 7.1 µM

Q: `COc1ccc(C(=O)c2cccc(OS(N)(=O)=O)c2)cc1` was tested. Which IC50 did it give?
A: 6.9 µM

Q: `COc1cccc(C(=O)c2ccc(OS(N)(=O)=O)cc2)c1` was tested. Which IC50 did it give?
A: 5.2 µM

Q: With `NS(=O)(=O)Oc1cccc(C(=O)c2cccc(O)c2)c1` as the compound, how does the IC50 read?
A: 6.9 µM

Q: How did the IC50 turn out when `NS(=O)(=O)Oc1cccc(C(=O)c2ccc(O)cc2)c1` was run?
A: 5 µM

Q: Which IC50 does the source give for `NS(=O)(=O)Oc1cccc(C(=O)c2ccccc2)c1` here?
A: 5.7 µM

Q: For `NS(=O)(=O)Oc1cccc(C(=O)c2cccc(OS(N)(=O)=O)c2)c1`, which IC50 is on record?
A: 3.2 µM

Q: How did the IC50 turn out when `NS(=O)(=O)Oc1ccc(C(=O)c2cccc(OS(N)(=O)=O)c2)cc1` was run?
A: 0.78 µM

Q: For `NS(=O)(=O)Oc1ccc(C(=O)c2ccccc2O)cc1`, which IC50 is on record?
A: 4.6 µM

Q: For `COc1ccccc1C(=O)c1ccc(OS(N)(=O)=O)cc1`, which IC50 is on record?
A: 4.8 µM

Q: How did the IC50 turn out when `NS(=O)(=O)Oc1ccc(C(=O)c2ccc(OS(N)(=O)=O)cc2)cc1` was run?
A: 0.19 µM

Q: With `C[C@]12CC[C@@H]3c4ccc(OS(N)(=O)=O)cc4CC[C@H]3[C@@H]1CCC2=O` [EMATE] as the compound, how does the IC50 read?
A: 0.056 µM
